The test system of test [1] is Pseudomonas aeruginosa. As to the kind of experiment: Antibiofilm activity against Pseudomonas aeruginosa PAO1 assessed as inhibition of biofilm formation incubated for 8 hrs by crystal violet based. The settings on record: PAO1, 8 h. Type of test: functional, organism-based.
A short description of test [2]: Inhibition of quorum sensing system in Pseudomonas aeruginosa PA14 assessed as inhibition of pyocyanin production.
The subject of test [3] is Pseudomonas aeruginosa. The test can be described thus: Antibiofilm activity against Pseudomonas aeruginosa PAO1 assessed as reduction in biofilm formation at 100 uM incubated for 24 hrs by crystal violet staining based analysis relative to control. It counts as functional. On the set-up: scale not given: the % may be the effect or the level left.
The test system of test [4] is Streptococcus mutans. The test can be described thus: Antibiofilm activity against Streptococcus mutans ATCC 25175 assessed as inhibition of biofilm formation incubated for 24 hrs by crystal violet staining based analysis. It counts as functional, organism-based. The settings on record: ATCC 25175, 24 h.
Test [5] has as its system Staphylococcus aureus. The test can be described thus: Antibiofilm activity against Staphylococcus aureus ATCC 6538 assessed as inhibition of biofilm formation incubated for 24 hrs by crystal violet staining based analysis. It counts as functional, organism-based. Conditions: ATCC 6538, 24 h.
For test [6], the system named is Staphylococcus aureus. As to the kind of experiment: Antibacterial activity against Staphylococcus aureus assessed as bacterial growth inhibition. It counts as functional, organism-based.
For test [7], the system named is Staphylococcus aureus. As to the kind of experiment: Antibiofilm activity against methicillin-resistant Staphylococcus aureus assessed as inhibition of biofilm formation incubated for 8 hrs by crystal violet staining based analysis. It counts as functional, organism-based.
Test [8] deals with Enterococcus faecium. As to the kind of experiment: Antibacterial activity against Vancomycin-resistant Enterococcus faecium ATCC 51559 assessed as reduction in bacterial growth incubated for 18 hrs by spectrophotometry based analysis. Type of test: functional, organism-based. Conditions: ATCC 51559, 18 h.
For test [9], the system named is Pseudomonas aeruginosa. The test can be described thus: Antibiofilm activity against Pseudomonas aeruginosa PAO1 assessed as inhibition of biofilm formation at 64 microg/ml incubated for 24 hrs by BacTiter Glo reagent based luminescence analysis relative to control. Type of test: functional. On the set-up: scale not given: the % may be the effect or the level left. Conditions: dose 64 µg/ml.

The nature of test [10]: Inhibition of quorum sensing system in Pseudomonas aeruginosa PAO1 assessed as inhibition of pyocyanin production at 256 ug/ml incubated for 24 hrs by absorbance based assay. Conditions: dose 256.0 µg/ml.
Test [11] concerns Pseudomonas aeruginosa. The test can be described thus: Antibacterial activity against Pseudomonas aeruginosa 27853 assessed as inhibition of bacterial growth at 32 microg/ml incubated for 24 hrs in presence of Ciprofloxacin by absorbance based microplate reader analysis relative to control. It counts as functional. On the set-up: scale not given: the % may be the effect or the level left. Conditions: dose 32 µg/ml.

Test [12] has as its system Pseudomonas aeruginosa. The test can be described thus: Antibacterial activity against Pseudomonas aeruginosa 27853 assessed as inhibition of bacterial growth at 32 microg/ml incubated for 24 hrs in presence of Clarithromycin by absorbance based microplate reader analysis relative to control. Type of test: functional. Conditions: dose 32 µg/ml. Set-up: scale not given: the % may be the effect or the level left.

Test [13] has as its system Pseudomonas aeruginosa. The test can be described thus: Antibiofilm activity against Pseudomonas aeruginosa assessed as reduction in biofilm formation incubated for 24 hrs by microscopic analysis. It counts as functional, organism-based.
Test [14] deals with Pseudomonas aeruginosa. As to the kind of experiment: Antibiofilm activity against Pseudomonas aeruginosa PAO1 assessed as reduction in biofilm formation at 12.5 uM relative to control. It counts as functional. Set-up: scale not given: the % may be the effect or the level left.
The subject of test [15] is Pseudomonas aeruginosa. As to the kind of experiment: Antibiofilm activity against Pseudomonas aeruginosa PAO1 assessed as reduction in biofilm formation at 50 uM relative to control. On the set-up: scale not given: the % may be the effect or the level left. Type of test: functional.
Test [16] in a line: Inhibition of quorum sensing system in Pseudomonas aeruginosa PAO1 assessed as inhibition of pyocyanin production at 12.5 uM incubated for 24 hrs by absorbance based assay relative to control.
The subject of test [17] is Pseudomonas aeruginosa. The test can be described thus: Antibiofilm activity against Pseudomonas aeruginosa PAO1 assessed as reduction in biofilm formation at 25 uM relative to control. It counts as functional. On the set-up: scale not given: the % may be the effect or the level left.
In test [18] the test system is Staphylococcus aureus. As to the kind of experiment: Antibacterial activity against Staphylococcus aureus MTCC 96 assessed as reduction in microbial growth after 24 hrs by CLSI based microdilution method. Type of test: functional. (In general: Broth dilution looks for growth in wells or tubes with falling amounts of substance.)
Test [19] deals with Micrococcus luteus. As to the kind of experiment: Antibacterial activity against Micrococcus luteus MTCC 2470 assessed as inhibition of bacterial growth incubated for 24 hrs by agar well diffusion method. It counts as functional. (In general: A growth-free zone around the sample is the usual read-out of agar diffusion tests.)
Test [20] relates to Staphylococcus aureus. The test can be described thus: Antibacterial activity against Staphylococcus aureus MLS16 MTCC 2940 assessed as bacterial growth inhibition measured after 24 hrs by microdilution assay. Type of test: functional.
In test [21] the test system is Staphylococcus aureus. As to the kind of experiment: Antibacterial activity against Staphylococcus aureus ATCC 25923 assessed as bacterial growth inhibition measured after 18 hrs by CLSI protocol based two-fold serial microdilution method. Type of test: functional, organism-based. Conditions: ATCC 25923, 18 h.
Test [22] has as its system Acinetobacter baumannii. As to the kind of experiment: Antibacterial activity against Acinetobacter baumannii ATCC 19606 assessed as growth inhibition incubated for 18 hrs by resazurin dye based assay. Type of test: functional, organism-based. The settings on record: ATCC 19606, 18 h.
In test [23] the test system is Pseudomonas aeruginosa. As to the kind of experiment: Antimicrobial activity against Pseudomonas aeruginosa ATCC 9027 assessed as reduction in microbial growth by serial dilution method. It counts as functional, organism-based.

The source of these data is ChEMBL document CHEMBL5512599, “Synthetic non-toxic anti-biofilm agents as a strategy in combating bacterial resistance” (Eur J Med Chem, 2023).

In brackets after ≈: the same amount, converted by molar mass.

What is called IC50 is the concentration needed to halve the response being measured. Turning to `Cc1ccc(NC(=O)Cn2c(N)nc(Cc3ccc(C(C)(C)C)cc3)c2-c2ccccc2Br)cc1`, in test [1], the IC50 was 100 µM.
Consider `O=C(CCCOc1cccc(Br)c1)NC1CCSC1=O` (stereo not drawn), for which the concentration for half-maximal inhibition (IC50) in [2] came out at 8 µM. For the same compound, the Activity in test [3] was 62%.
For `CCOC(=O)c1nn(-c2ccc([N+](=O)[O-])cc2)cc1C(=O)c1cc2cc(CN3CCN(Cc4ccc5oc(C(=O)c6cn(-c7ccc([N+](=O)[O-])cc7)nc6C(=O)OCC)cc5c4)CC3)ccc2o1`, the half-maximal inhibitory concentration (IC50) in test [4] came out at 5.8 µM.
For the compound `CCOC(=O)c1nn(-c2ccc(Cl)cc2)cc1C(=O)c1cc2cc(CN3CCN(Cc4ccc5oc(C(=O)c6cn(-c7ccc(Cl)cc7)nc6C(=O)OCC)cc5c4)CC3)ccc2o1`, in test [5], the half-inhibitory concentration (IC50) is 4.2 µM.
Broadly, the EC50 is the midpoint of the concentration-response curve. Turning to `Nc1nc2cc(NC(=O)c3c(Cl)c(Cl)c(Cl)c(Cl)c3C(=O)O)ccc2[nH]1`, the concentration giving a half-maximal response (EC50) is under 8 µM in test [6] and 75 µM in test [8]. Besides, in [7], the half-inhibitory concentration (IC50) was 1.5 µM.
Usually inhibition stands for how much of the control response was suppressed. As for `COc1ccc(OCCCCCCCC(=O)NNC(=O)Cn2c(=O)oc3ncccc32)cc1`, the figures for the Activity in test [9], in [11] and in test [12] were 40%, 48.27% and 49.79%, respectively. Also, the inhibition in [10] was found to be 53%.
As to `Nc1nc2ccccc2[nH]1`, the IC50 in [13] was 47 µM.
In the case of `CCCCCCSSc1nc2ccccc2c(=O)[nH]1`, the Activity is on record as 38% in test [14], 46% in [15] and 43% in test [17]. The inhibition in test [16] was 94%.
One may read the MIC as the lowest concentration that inhibits growth of the organism. With `CCCCCCCCc1ccc(C(F)(F)F)nc1OCc1cn(C#N)nn1`, the MIC in [18] turned out to be 9.37 µM; in test [19], 18.8 µM (≈ 7.15 µg/mL); in test [20] it was 9.37 µM (≈ 3.57 µg/mL).
In the case of `C/C(=C\c1ccccc1)Cn1cc(CCCCCc2c[nH]c(N)n2)nn1`, the half-maximal inhibitory concentration (IC50) stood at 0.81 µM in test [21] and 0.98 µM in test [22].
Consider `O=C1C=C(c2ccc(F)cc2)/C(=C/Sc2ccccn2)N1`, for which, in test [23], the IC50 is 32 µM.
